The text below walks through data of US20250353864A1, “INDAZOLE CONTAINING MACROCYCLES AND THEIR USE” (BLOSSOMHILL THERAPEUTICS, INC., priority 2022, published 2025).

The IC50 is the point on the concentration scale where inhibition reaches its midpoint.

Common to all, as to format: biochemical
The target of one experiment is EGFR Δ746-750 mutant (Homo sapiens (Human), UniProt P00533, DEL746-750). The experiment can be described thus: HotSpot radiometric kinase assay, EGFR Δ746-750 mutant. The note with it: 10 μM ATP. In a few lines:
(§1)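 Radiometric filter-binding read-out: incorporated 33P was retained on P81 ion-exchange paper after washing away unbound phosphate. Reactions ran 120 min at room temperature with 10 μM final ATP, following ~20 min compound preincubation in Hepes pH 7.5 buffer containing 1% DMSO. IC50 from fitted curves.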

For a further experiment, the target named is CLK1 (Homo sapiens (Human), UniProt P49759). Description: Inhibition of CLK1 kinase activity evaluated at Nanosyn (ADP-Glo). The note with it: ADP-Glo luminescence. In a few lines:
(§2)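 ADP-Glo luminescence (40 min depletion, 10 min detection) quantifies ADP from ATP-initiated phosphorylation of substrate by each CLK isoform in HEPES pH 7.5 buffer, 1% DMSO, assay-specific incubation. %-inhibition calculated against uninhibited and enzyme-free controls.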
(In ADP-Glo the light output rises with the ADP produced.)

The target in experiment [1] is EGFR Δ746-750/C797S mutant (Homo sapiens (Human), UniProt P00533, C797S/DEL746-750). Description: HotSpot radiometric kinase assay, EGFR Δ746-750/C797S mutant. The note with it: 10 μM ATP. An outline of the steps:
as §1

The next experiment has as its target CLK2 (Homo sapiens (Human), UniProt P49760). Description: Inhibition of CLK2 kinase activity evaluated at Nanosyn (ADP-Glo). The note with it: ADP-Glo luminescence. In a few lines: as §2
The target in the next experiment is CLK4 (Homo sapiens (Human), UniProt Q9HAZ1). The experiment can be described thus: Inhibition of CLK4 kinase activity evaluated at Nanosyn (ADP-Glo). The note with it: ADP-Glo luminescence. In a few lines: as §2
For another experiment, the target named is EGFR L858R/T790M mutant (Homo sapiens (Human), UniProt P00533, L858R/T790M). Description: HotSpot radiometric kinase assay, EGFR L858R/T790M mutant. Particulars: 10 μM ATP. In a few lines: as §1
The next experiment has as its target EGFR (D770_N771insNPG) (Homo sapiens (Human), UniProt P00533, INS770NPG). The experiment can be described thus: HotSpot radiometric kinase assay, EGFR (D770_N771insNPG). Particulars: 10 μM ATP, read-out: EGFR (Δ770_N771insNPG) IC50. An outline of the steps:
as §1

Experiment [2] concerns the target EGFR L858R/T790M/C797S mutant (Homo sapiens (Human), UniProt P00533, C797S/L858R/T790M). Description: HotSpot radiometric kinase assay, EGFR L858R/T790M/C797S mutant. Particulars: 10 μM ATP. In a few lines:
as §1

The next experiment addresses EGFR L858R mutant (Homo sapiens (Human), UniProt P00533, L858R). Description: HotSpot radiometric kinase assay, EGFR L858R mutant. The note with it: 10 μM ATP. In a few lines:
as §1

A further experiment concerns the target CLK3 (Homo sapiens (Human), UniProt P49761). Description: Inhibition of CLK3 kinase activity evaluated at Nanosyn (ADP-Glo). The note with it: ADP-Glo luminescence. In a few lines: as §2
In the next experiment the target is EGFR WT (Homo sapiens (Human), UniProt P00533). The experiment can be described thus: HotSpot radiometric kinase assay (Reaction Biology), EGFR WT. Particulars: 10 μM ATP. In a few lines: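 IC50 values derive from curve fits of 33P incorporation measured by P81 filter binding. ATP was 10 μM final; incubation lasted 120 min at room temperature after ~20 min compound preincubation.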
EGFR WT, sequence (P00533 25-1210): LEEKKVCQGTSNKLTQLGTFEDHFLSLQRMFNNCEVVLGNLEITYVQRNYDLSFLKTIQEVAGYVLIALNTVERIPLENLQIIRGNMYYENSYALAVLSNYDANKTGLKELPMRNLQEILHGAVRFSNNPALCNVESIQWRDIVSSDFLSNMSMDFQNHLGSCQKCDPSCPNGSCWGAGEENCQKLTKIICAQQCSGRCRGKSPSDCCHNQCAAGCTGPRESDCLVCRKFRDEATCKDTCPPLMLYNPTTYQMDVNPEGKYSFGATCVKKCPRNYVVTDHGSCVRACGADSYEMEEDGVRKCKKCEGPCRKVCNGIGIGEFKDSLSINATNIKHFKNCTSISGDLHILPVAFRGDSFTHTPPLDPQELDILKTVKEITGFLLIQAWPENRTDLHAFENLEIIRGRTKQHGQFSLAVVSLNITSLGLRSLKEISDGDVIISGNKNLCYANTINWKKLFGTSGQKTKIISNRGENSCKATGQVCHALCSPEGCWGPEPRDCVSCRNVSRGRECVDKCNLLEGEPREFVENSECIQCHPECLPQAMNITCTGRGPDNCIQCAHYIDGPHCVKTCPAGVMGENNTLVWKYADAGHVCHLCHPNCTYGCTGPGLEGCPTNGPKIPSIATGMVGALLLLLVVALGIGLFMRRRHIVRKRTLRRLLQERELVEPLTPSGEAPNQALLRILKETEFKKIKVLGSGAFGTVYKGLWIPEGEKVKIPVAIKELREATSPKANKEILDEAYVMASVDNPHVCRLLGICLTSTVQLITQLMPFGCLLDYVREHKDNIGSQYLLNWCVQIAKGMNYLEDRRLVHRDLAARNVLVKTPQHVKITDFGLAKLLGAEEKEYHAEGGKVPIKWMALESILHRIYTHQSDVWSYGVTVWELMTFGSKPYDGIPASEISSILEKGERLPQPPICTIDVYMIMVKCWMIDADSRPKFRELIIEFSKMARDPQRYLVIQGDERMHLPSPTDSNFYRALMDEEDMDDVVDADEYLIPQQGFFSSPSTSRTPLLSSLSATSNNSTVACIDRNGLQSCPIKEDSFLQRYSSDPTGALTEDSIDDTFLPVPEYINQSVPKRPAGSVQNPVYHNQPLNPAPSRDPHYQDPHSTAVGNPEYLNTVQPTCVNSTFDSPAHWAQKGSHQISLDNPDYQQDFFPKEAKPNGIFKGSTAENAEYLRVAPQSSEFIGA

CLK3, sequence (P49761 whole entry): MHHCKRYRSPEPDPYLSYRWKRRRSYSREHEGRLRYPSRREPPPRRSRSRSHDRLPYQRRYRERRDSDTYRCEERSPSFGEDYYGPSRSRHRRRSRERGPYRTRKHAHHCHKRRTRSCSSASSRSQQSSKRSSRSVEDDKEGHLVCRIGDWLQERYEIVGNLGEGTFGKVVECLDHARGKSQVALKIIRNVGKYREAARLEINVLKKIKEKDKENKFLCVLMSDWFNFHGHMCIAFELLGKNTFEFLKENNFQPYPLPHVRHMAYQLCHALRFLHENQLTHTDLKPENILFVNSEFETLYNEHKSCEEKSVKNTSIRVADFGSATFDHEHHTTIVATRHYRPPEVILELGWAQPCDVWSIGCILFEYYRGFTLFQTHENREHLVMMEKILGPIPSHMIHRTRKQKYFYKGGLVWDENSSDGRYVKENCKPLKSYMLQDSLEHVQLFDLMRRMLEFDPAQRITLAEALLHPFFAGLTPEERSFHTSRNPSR
CLK1, sequence (P49759 whole entry, canonical isoform): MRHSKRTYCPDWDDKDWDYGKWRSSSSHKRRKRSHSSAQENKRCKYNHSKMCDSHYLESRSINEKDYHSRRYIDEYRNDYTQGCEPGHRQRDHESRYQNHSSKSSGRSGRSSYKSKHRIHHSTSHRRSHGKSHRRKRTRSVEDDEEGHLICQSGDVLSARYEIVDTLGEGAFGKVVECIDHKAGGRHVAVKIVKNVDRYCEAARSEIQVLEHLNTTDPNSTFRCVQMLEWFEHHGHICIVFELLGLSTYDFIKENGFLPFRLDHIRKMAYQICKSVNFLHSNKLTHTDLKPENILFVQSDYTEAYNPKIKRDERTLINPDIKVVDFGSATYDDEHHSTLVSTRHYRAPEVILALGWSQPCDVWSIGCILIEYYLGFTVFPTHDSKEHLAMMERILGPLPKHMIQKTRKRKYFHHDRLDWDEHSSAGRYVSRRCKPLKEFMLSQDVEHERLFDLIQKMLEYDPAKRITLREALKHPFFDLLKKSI
EGFR L858R mutant, sequence (P00533 25-1210 L858R): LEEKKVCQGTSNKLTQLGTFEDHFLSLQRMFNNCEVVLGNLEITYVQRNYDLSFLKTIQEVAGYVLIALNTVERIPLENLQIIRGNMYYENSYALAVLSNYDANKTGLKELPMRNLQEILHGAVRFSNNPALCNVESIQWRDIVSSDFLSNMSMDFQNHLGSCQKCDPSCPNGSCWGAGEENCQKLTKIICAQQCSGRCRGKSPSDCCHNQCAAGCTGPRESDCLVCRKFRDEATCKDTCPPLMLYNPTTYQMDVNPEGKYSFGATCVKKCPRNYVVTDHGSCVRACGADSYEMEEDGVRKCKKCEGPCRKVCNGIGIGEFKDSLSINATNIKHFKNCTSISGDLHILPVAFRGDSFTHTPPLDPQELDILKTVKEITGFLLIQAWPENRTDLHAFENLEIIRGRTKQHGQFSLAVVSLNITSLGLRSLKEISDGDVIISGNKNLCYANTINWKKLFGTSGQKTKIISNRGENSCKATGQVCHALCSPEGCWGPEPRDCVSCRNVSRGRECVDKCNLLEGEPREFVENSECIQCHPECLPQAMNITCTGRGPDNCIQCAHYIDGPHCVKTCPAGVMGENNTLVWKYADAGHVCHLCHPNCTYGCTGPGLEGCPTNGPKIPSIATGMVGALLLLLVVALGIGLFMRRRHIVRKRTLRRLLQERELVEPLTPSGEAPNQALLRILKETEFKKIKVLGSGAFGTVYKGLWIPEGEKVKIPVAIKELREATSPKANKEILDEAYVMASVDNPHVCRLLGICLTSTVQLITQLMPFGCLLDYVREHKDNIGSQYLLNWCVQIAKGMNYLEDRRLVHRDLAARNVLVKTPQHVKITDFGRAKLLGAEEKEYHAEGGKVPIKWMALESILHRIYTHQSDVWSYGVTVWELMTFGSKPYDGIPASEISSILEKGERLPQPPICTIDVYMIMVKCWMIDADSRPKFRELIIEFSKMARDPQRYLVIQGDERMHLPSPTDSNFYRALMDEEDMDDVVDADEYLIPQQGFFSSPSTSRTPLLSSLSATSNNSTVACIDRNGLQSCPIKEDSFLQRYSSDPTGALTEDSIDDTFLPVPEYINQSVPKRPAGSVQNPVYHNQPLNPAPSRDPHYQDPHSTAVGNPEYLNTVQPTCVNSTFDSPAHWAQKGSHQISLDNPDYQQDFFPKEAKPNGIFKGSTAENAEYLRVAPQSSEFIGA
EGFR L858R/T790M/C797S mutant, sequence (P00533 25-1210 T790M/C797S/L858R): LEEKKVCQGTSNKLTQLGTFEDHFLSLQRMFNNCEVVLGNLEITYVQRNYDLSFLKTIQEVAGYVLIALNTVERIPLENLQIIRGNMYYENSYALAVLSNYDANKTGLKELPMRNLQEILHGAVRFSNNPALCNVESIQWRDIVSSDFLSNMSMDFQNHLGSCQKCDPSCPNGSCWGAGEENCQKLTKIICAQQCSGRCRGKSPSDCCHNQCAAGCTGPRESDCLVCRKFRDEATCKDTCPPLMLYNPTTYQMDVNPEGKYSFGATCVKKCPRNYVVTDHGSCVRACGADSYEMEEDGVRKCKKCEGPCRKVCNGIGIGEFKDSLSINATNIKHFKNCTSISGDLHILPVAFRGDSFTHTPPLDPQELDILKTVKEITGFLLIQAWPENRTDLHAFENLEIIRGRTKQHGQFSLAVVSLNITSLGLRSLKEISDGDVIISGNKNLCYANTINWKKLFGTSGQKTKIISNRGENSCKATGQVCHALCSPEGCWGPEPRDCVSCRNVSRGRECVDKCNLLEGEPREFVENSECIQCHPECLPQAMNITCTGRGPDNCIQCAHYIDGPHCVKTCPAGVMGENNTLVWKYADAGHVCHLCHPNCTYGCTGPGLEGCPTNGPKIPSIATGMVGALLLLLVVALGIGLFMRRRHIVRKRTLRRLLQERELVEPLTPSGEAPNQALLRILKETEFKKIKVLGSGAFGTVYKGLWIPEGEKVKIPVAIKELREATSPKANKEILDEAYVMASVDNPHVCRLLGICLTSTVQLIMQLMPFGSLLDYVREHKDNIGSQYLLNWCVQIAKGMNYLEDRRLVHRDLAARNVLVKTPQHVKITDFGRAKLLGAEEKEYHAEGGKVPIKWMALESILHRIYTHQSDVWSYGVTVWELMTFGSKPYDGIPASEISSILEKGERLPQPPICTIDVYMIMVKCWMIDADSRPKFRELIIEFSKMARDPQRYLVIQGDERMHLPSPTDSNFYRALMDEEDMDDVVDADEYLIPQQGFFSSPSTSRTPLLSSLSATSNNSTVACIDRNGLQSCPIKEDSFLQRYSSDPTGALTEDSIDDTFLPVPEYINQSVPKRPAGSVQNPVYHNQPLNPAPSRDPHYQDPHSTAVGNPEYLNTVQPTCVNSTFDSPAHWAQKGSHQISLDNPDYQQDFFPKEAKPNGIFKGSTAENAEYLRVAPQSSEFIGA
CLK2, sequence (P49760 whole entry): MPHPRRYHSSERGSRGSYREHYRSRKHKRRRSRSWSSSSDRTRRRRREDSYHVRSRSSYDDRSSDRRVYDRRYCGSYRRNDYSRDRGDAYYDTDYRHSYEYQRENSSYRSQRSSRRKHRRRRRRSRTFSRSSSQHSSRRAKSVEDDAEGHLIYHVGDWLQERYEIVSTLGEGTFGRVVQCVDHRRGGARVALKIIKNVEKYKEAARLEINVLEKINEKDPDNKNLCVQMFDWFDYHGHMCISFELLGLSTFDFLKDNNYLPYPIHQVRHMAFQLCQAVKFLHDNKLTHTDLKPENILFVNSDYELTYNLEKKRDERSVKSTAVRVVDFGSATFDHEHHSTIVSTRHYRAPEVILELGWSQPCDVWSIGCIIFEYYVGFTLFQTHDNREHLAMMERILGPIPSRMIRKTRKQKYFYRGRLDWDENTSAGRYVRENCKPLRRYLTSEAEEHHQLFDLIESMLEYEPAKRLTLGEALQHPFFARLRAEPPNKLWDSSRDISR

As to `CCOc1nn([C@@H](C)CO)c2c1/C=C/c1n[nH]c3cc(F)c(cc13)-c1cnn(C)c1OC[C@H](C)N(C(C)C)C2` [Example 228, (2S)-2-[(11S,17E)-16-ethoxy-19-fluoro-8,11-dimethyl-12-(propan-2-yl)-2,8,10,11,12,13-hexahydro-14H-3,5-ethenotripyrazolo[3,4-f:3′,4′-j:4″,3″- n][1,4]oxazacyclopentadecin-14-yl]propan-1-ol], the half-inhibitory concentration (IC50) on EGFR Δ746-750 mutant was found to be 12.2 nM; on CLK1, 21.9 nM; in experiment [1], 44.4 nM; on CLK2, 8.6 nM; on CLK4, 34 nM; against EGFR L858R/T790M mutant, 25.9 nM. Also, the IC50 is 481 nM at EGFR (D770_N771insNPG); 10.6 nM in [2]; 25.2 nM against EGFR L858R mutant; 1000 nM at CLK3; 52.7 nM against EGFR WT.
For `C[C@@H](C#N)Oc1nn(CCO)c2c1/C=C/c1n[nH]c3cc(F)c(cc13)-c1cnn(C)c1O[C@@H](C)CN(C)C2` [Ex. 269, (2S)-2-{[(10S,17E)-19-fluoro-14-(2-hydroxyethyl)-8,10,12-trimethyl-2,10,11,12,13,14-hexahydro-8H-3,5-ethenotripyrazolo[3,4-f:3′,4′-j:4″,3″-n][1,4]oxazacyclopentadecin-16-yl]oxy}propanenitrile], the 50% inhibitory concentration (IC50) at EGFR Δ746-750 mutant came to 5.25 nM; on CLK1, 0.94 nM; in [1], 2.56 nM; on CLK2 it was 0.32 nM; at CLK4, 1.76 nM; on EGFR L858R/T790M mutant, 1.82 nM. The IC50 turned out to be 102 nM on EGFR (D770_N771insNPG); 0.67 nM in experiment [2]; 8.53 nM against EGFR L858R mutant; 238 nM on CLK3; 20.3 nM at EGFR WT.
On to `Cc1nn(C[C@H](C)O)c2c1/C=C/c1n[nH]c3ccc(cc13)-c1cnn(C)c1O[C@@H](C)CN(C)C2` [Example 123, (2S)-1-[(10S,17E)-8,10,12,16-tetramethyl-2,8,10,11,12,13-hexahydro-14H-3,5-ethenotripyrazolo[3,4f:3′,4′-j:4″,3″-n][1,4]oxazacyclopentadecin-14-yl]propan-2-ol], for which the IC50 against EGFR Δ746-750 mutant was determined as 1.3 nM; on CLK1, 0.17 nM; in [1], 0.8 nM; on CLK2 it was 0.1 nM; on CLK4, 0.45 nM; against EGFR L858R/T790M mutant it was 0.33 nM. For the same molecule, the IC50 at EGFR (D770_N771insNPG) stood at 10.1 nM; in [2] it was 0.75 nM; against EGFR L858R mutant it was 1.5 nM; on CLK3 it was 171 nM; on EGFR WT it was 11.4 nM.
For `CSCn1ncc2c1O[C@@H](C)CN(C(C)C)Cc1c(c(C)nn1C)/C=C/c1n[nH]c3ccc-2cc13` [Example 164, (10S,17E)-10,14,16-trimethyl-8-[(methylsulfanyl)methyl]-12-(propan-2-yl)-2,10,11,12,13,14-hexahydro-8H-3,5-ethenotripyrazolo[3,4-f:3′,4′-j:4″,3″-n][1,4]oxazacyclopentadecine], the IC50 on EGFR Δ746-750 mutant was 33.4 nM; at CLK1 it was 0.39 nM; in [1], 20.2 nM; on CLK2 it was 0.75 nM; on CLK4 it was 0.59 nM; against EGFR L858R/T790M mutant it was 3.23 nM. The 50% inhibitory concentration (IC50) at EGFR (D770_N771insNPG) was 95.3 nM; in experiment [2] it was 1.76 nM; on EGFR L858R mutant, 16.7 nM; at CLK3 it was 1000 nM; against EGFR WT it was 220 nM.
In the case of `Cn1ncc2c1OCCN1CC[C@H](C1)Oc1ccccc1/C=C/c1n[nH]c3ccc-2cc13` [Example 170, (10R,16E)-3-methyl-3,5,6,9,10,19-hexahydro-8H-20,22-etheno-7,10-methanodipyrazolo[3,4-i:4′,3′-m][1,8,5]benzodioxazacyclooctadecine], the IC50 against EGFR Δ746-750 mutant stood at 116 nM; on CLK1, 0.38 nM; in experiment [1] it was 30.2 nM; on CLK2, 0.36 nM; on CLK4, 0.43 nM; against EGFR L858R/T790M mutant it was 36.6 nM. The IC50 came to 329 nM on EGFR (D770_N771insNPG); 25.9 nM in experiment [2]; 310 nM at EGFR L858R mutant; 1000 nM at CLK3; 908 nM at EGFR WT.
In the case of `Cc1c2c(nn1C)/C=C/c1n[nH]c3ccc(cc13)-c1cnn(C)c1O[C@@H](C)CN(C(C)C)C2` [Example 233, (10S,17E)-8,10,14,15-tetramethyl-12-(propan-2-yl)-2,10,11,12,13,15-hexahydro-8H-3,5-ethenotripyrazolo[4,3-f:3′,4′-j:4″,3″- n][1,4]oxazacyclopentadecine], the IC50 against EGFR Δ746-750 mutant was found to be 10.7 nM; on CLK1, 0.71 nM; in experiment [1], 25 nM; on CLK2, 0.43 nM; at CLK4, 0.89 nM; at EGFR L858R/T790M mutant it was 1.32 nM. The 50% inhibitory concentration (IC50) on EGFR (D770_N771insNPG) turned out to be 256 nM; in experiment [2], 1.61 nM; against EGFR L858R mutant it was 41.5 nM; on CLK3 it was 403 nM; at EGFR WT, 151 nM.
For the molecule `Cc1nn(C)c2c1/C=C/c1n[nH]c3ccc(cc13)-c1cnn(C)c1OCCN(C)C2` [Example 43, (17E)-8,12,14,16-tetramethyl-2,10,11,12,13,14-hexahydro-8H-3,5-ethenotripyrazolo[3,4-f:3′,4′-j:4″,3″- n][1,4]oxazacyclopentadecine], the IC50 amounted to 74.8 nM at EGFR Δ746-750 mutant; 0.1 nM at CLK1; 133 nM in experiment [1]; 0.14 nM on CLK2; 0.25 nM at CLK4; 13.5 nM at EGFR L858R/T790M mutant. For the same molecule, the IC50 at EGFR (D770_N771insNPG) amounted to 541 nM; in [2], 34.5 nM; on EGFR L858R mutant, 144 nM; at CLK3 it was 236 nM; at EGFR WT it was 543 nM.
On to `Cc1nn(C)c2c1/C=C/c1n[nH]c3ccc(cc13)-c1cnn(C)c1O[C@@H]1CCN(C2)C1` [Example 167, (10R,18E)-8,15,17-trimethyl-2,8,11,12,14,15-hexahydro-10H-3,5-etheno-10,13-methanotripyrazolo[3,4-g:3′,4′-k:4″,3″- 0][1,5]oxazacyclohexadecine], for which the IC50 was found to be 23.8 nM against EGFR Δ746-750 mutant; 0.38 nM on CLK1; 13.6 nM in [1]; 0.23 nM at CLK2; 0.55 nM on CLK4; 3.42 nM at EGFR L858R/T790M mutant. Further, the IC50 worked out at 47.1 nM at EGFR (D770_N771insNPG); 8.89 nM in [2]; 35.7 nM on EGFR L858R mutant; 108 nM at CLK3; 123 nM against EGFR WT.
Turning to `Cc1c2c(nn1C)/C=C/c1n[nH]c3ccc(cc13)-c1cnn(C)c1O[C@@H](C)CN(C)C2` [Example 126, (10S,17E)-8,10,12,14,15-pentamethyl-2,10,11,12,13,15-hexahydro-8H-3,5-ethenotripyrazolo[4,3-f:3′,4′-j:4″,3″-n][1,4]oxazacyclopentadecine], the IC50 was found to be 16.1 nM on EGFR Δ746-750 mutant; 0.32 nM at CLK1; 19.8 nM in [1]; 0.12 nM on CLK2; 0.49 nM at CLK4; 2.07 nM at EGFR L858R/T790M mutant. Also, the 50% inhibitory concentration (IC50) came to 133 nM at EGFR (D770_N771insNPG); 2.8 nM in experiment [2]; 18.6 nM against EGFR L858R mutant; 188 nM on CLK3; 164 nM against EGFR WT.
In the case of `CC(C)Oc1nn(CCO)c2c1/C=C/c1n[nH]c3ccc(cc13)-c1cnn(C)c1OC(CF)CN(C)C2` (centres unmarked) [Example 225, 2-{(17E)-10-(fluoromethyl)-8,12-dimethyl-16-[(propan-2-yl)oxy]-2,8,10,11,12,13-hexahydro-14H-3,5-ethenotripyrazolo[3,4-f:3′,4′-j:4″,3″-n][1,4]oxazacyclopentadecin-14-yl}ethan-1-ol], the IC50 worked out at 5.39 nM on EGFR Δ746-750 mutant; 1.11 nM on CLK1; 1.44 nM in [1]; 0.49 nM on CLK2; 1.92 nM on CLK4; 0.57 nM against EGFR L858R/T790M mutant. The half-maximal inhibitory concentration (IC50) is 65.4 nM at EGFR (D770_N771insNPG); 0.21 nM in experiment [2]; 12.2 nM against EGFR L858R mutant; 77.7 nM on CLK3; 51.8 nM against EGFR WT.
